Test results taken from ChEMBL document CHEMBL1134255, “Synthesis and evaluation of efavirenz (Sustiva) analogues as HIV-1 reverse transcriptase inhibitors: replacement of the cyclopropylacetylene side chain” (2001).

Legend:
[1] = system: Human immunodeficiency virus 1; assay: Antiviral activity was evaluated against wild-type HIV-1 virus; assay type: functional
[2] = system: Human immunodeficiency virus type 1 reverse transcriptase (Human immunodeficiency virus 1), Q72547 [K103N]

O=C1Nc2ccc(F)c(F)c2C(C#Cc2ccsc2)(C(F)(F)F)O1 (stereo not drawn)
IC90 [1]: 2.34 nM | IC90 [2]: 139 nM

O=C1Nc2ccc(Cl)cc2C(OCCC2CC2)(C(F)(F)F)O1 (stereo not drawn)
IC90 [1]: 8.04 nM

O=C1Nc2ccc(Cl)cc2C(C#Cc2ccoc2)(C(F)(F)F)O1 (stereo not drawn)
IC90 [1]: 3.8 nM | IC90 [2]: 322 nM

O=C1Nc2ccc(F)c(F)c2C(C#Cc2ccccn2)(C(F)(F)F)O1 (stereo not drawn)
IC90 [1]: 6.78 nM

O=C1Nc2ccc(Cl)cc2C(C#Cc2cncs2)(C(F)(F)F)O1 (stereo not drawn)
IC90 [1]: 6.69 nM

CCCOC1(C(F)(F)F)OC(=O)Nc2ccc(Cl)cc21 (stereo not drawn)
IC90 [1]: 5.81 nM

C/C=C/COC1(C(F)(F)F)OC(=O)Nc2ccc(F)cc21 (stereo not drawn)
IC90 [1]: 8.85 nM | IC90 [2]: 1150 nM

O=C1Nc2ccc(F)c(F)c2C(C#Cc2cccnc2)(C(F)(F)F)O1 (stereo not drawn)
IC90 [1]: 2.23 nM | IC90 [2]: 59.3 nM

O=C1Nc2ccc(Cl)cc2C(C#Cc2ccco2)(C(F)(F)F)O1 (stereo not drawn)
IC90 [1]: 3.8 nM | IC90 [2]: 152 nM

CC(C)CCOC1(C(F)(F)F)OC(=O)Nc2ccc(Cl)cc21 (stereo not drawn)
IC90 [1]: 10.1 nM | IC90 [2]: 286 nM

O=C1Nc2ccc(F)c(F)c2C(C#Cc2ccoc2)(C(F)(F)F)O1 (stereo not drawn)
IC90 [1]: 3.21 nM | IC90 [2]: 280 nM

O=C1Nc2ccc(F)cc2C(OCC=C(Cl)Cl)(C(F)(F)F)O1 (stereo not drawn)
IC90 [1]: 11.9 nM

O=C1Nc2ccc(Cl)cc2C(OCCc2ccccc2)(C(F)(F)F)O1 (stereo not drawn)
IC90 [1]: 167 nM

CCCCOC1(C(F)(F)F)OC(=O)Nc2ccc(Cl)cc21 (stereo not drawn)
IC90 [1]: 10.2 nM | IC90 [2]: 989 nM

C/C=C/COC1(C(F)(F)F)OC(=O)Nc2ccc(Cl)cc21 (stereo not drawn)
IC90 [1]: 5.6 nM | IC90 [2]: 404 nM

CC(C)=CCOC1(C(F)(F)F)OC(=O)Nc2ccc(F)c(F)c21 (stereo not drawn)
IC90 [1]: 1.54 nM | IC90 [2]: 65 nM

O=C1Nc2ccc(Cl)cc2C(C#Cc2ccncc2)(C(F)(F)F)O1 (stereo not drawn)
IC90 [1]: 102 nM

O=C1Nc2ccc(F)cc2C(C#Cc2ccsc2)(C(F)(F)F)O1 (stereo not drawn)
IC90 [1]: 2.55 nM | IC90 [2]: 193 nM

O=C1Nc2ccc(Cl)cc2C(OCC=C(Cl)Cl)(C(F)(F)F)O1 (stereo not drawn)
IC90 [1]: 9.5 nM | IC90 [2]: 242 nM

O=C1Nc2ccc(F)c(F)c2C(C#Cc2ccco2)(C(F)(F)F)O1 (stereo not drawn)
IC90 [1]: 3.79 nM

O=C1Nc2ccc(F)c(F)c2C(C#Cc2cccs2)(C(F)(F)F)O1 (stereo not drawn)
IC90 [1]: 2.23 nM | IC90 [2]: 156 nM

COCCOC1(C(F)(F)F)OC(=O)Nc2ccc(Cl)cc21 (stereo not drawn)
IC90 [1]: 61.4 nM

C=CCOC1(C(F)(F)F)OC(=O)Nc2ccc(Cl)cc21 (stereo not drawn)
IC90 [1]: 3.9 nM

C=CCCOC1(C(F)(F)F)OC(=O)Nc2ccc(Cl)cc21 (stereo not drawn)
IC90 [1]: 13.7 nM

CC(C)=CCOC1(C(F)(F)F)OC(=O)Nc2ccc(F)cc21 (stereo not drawn)
IC90 [1]: 2.98 nM | IC90 [2]: 107 nM

O=C1Nc2ccc(Cl)cc2C(OCc2cccnc2)(C(F)(F)F)O1 (stereo not drawn)
IC90 [1]: 75.3 nM

O=C1Nc2ccc(F)cc2C(C#Cc2cccs2)(C(F)(F)F)O1 (stereo not drawn)
IC90 [1]: 2.93 nM

O=C1Nc2ccc(Cl)cc2C(C#Cc2cccnc2)(C(F)(F)F)O1 (stereo not drawn)
IC90 [1]: 3.97 nM | IC90 [2]: 145 nM

O=C1Nc2ccc(Cl)cc2C(C#Cc2ccccn2)(C(F)(F)F)O1 (stereo not drawn)
IC90 [1]: 5.39 nM | IC90 [2]: 1110 nM

CCOC1(C(F)(F)F)OC(=O)Nc2ccc(Cl)cc21 (stereo not drawn)
IC90 [1]: 18.3 nM

N#CCCOC1(C(F)(F)F)OC(=O)Nc2ccc(Cl)cc21 (stereo not drawn)
IC90 [1]: > 1500 nM

O=C1Nc2ccc(Cl)cc2C(OCc2ccccc2)(C(F)(F)F)O1 (stereo not drawn)
IC90 [1]: 17.9 nM

O=C1Nc2ccc(Cl)cc2C(OCC(F)(F)C(F)(F)F)(C(F)(F)F)O1 (stereo not drawn)
IC90 [1]: 651 nM

C=CCOC1(C(F)(F)F)OC(=O)Nc2ccc(F)c(F)c21 (stereo not drawn)
IC90 [1]: 6.47 nM | IC90 [2]: 1620 nM

O=C1Nc2ccc(F)c(F)c2C(OCC=C(Cl)Cl)(C(F)(F)F)O1 (stereo not drawn)
IC90 [1]: 6.35 nM | IC90 [2]: 183 nM

CC#CCOC1(C(F)(F)F)OC(=O)Nc2ccc(Cl)cc21 (stereo not drawn)
IC90 [1]: 3.13 nM | IC90 [2]: 310 nM

O=C1Nc2ccc(Cl)cc2C(C#Cc2ccsc2)(C(F)(F)F)O1 (stereo not drawn)
IC90 [1]: 4.47 nM | IC90 [2]: 106 nM

O=C1Nc2ccc(F)cc2C(C#Cc2ccoc2)(C(F)(F)F)O1 (stereo not drawn)
IC90 [1]: 2.52 nM | IC90 [2]: 369 nM

CC(C)=CCOC1(C(F)(F)F)OC(=O)Nc2ccc(Cl)cc21 (stereo not drawn)
IC90 [1]: 2.68 nM | IC90 [2]: 83 nM

O=C1Nc2ccc(F)cc2C(C#Cc2ccco2)(C(F)(F)F)O1 (stereo not drawn)
IC90 [1]: 2.58 nM

O=C1Nc2ccc(F)cc2C(C#Cc2ccccn2)(C(F)(F)F)O1 (stereo not drawn)
IC90 [1]: 12.2 nM

O=C1Nc2ccc(F)cc2C(C#Cc2cccnc2)(C(F)(F)F)O1 (stereo not drawn)
IC90 [1]: 2.56 nM | IC90 [2]: 329 nM

C/C=C\COC1(C(F)(F)F)OC(=O)Nc2ccc(Cl)cc21 (stereo not drawn)
IC90 [1]: 4.35 nM | IC90 [2]: 237 nM

O=C1Nc2ccc(Cl)cc2C(OCC2CC2)(C(F)(F)F)O1 (stereo not drawn)
IC90 [1]: 7.7 nM
